Assay results as given in patent US20250179028A1, “ACRYLAMIDE COMPOUNDS” (NRG THERAPEUTICS LTD, priority 2022, published 2025).
pIC50: −log10 of the molar value. Marks after values point to notes of the source that are not given here.

Tests used:
CYP2D6 = CYP2D6 (Homo sapiens (Human), UniProt P10635); assay: Cytochrome P450 CYP2D6 inhibition in human liver microsomes; assay type: in vitro ADME; conditions: for inhibition at 20 min, 1 µM: probe dextromethorphan 2 µM (dextrorphan formation), 1 uM test compound, negative values = no effective inhibition; for inhibition at 20 min, 1 µM / pIC50: human liver microsomes, average value from two experiments
Sequence of CYP2D6 (P10635 whole entry): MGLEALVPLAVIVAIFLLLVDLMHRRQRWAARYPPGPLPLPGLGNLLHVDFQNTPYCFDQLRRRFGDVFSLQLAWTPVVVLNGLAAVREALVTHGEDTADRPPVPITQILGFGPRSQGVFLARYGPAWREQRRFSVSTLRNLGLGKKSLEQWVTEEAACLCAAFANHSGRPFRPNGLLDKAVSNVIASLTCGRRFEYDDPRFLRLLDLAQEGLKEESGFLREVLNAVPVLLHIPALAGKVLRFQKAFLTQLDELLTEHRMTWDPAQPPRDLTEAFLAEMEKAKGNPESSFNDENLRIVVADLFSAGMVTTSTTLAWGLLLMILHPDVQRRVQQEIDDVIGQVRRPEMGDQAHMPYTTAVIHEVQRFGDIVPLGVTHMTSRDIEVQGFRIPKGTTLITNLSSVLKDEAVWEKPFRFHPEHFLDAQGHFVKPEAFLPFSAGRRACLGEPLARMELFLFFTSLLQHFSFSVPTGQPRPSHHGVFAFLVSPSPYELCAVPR
In short: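 Human liver microsomes (0.2 mg/mL) with 2 μM dextromethorphan in 100 mM PBS, test compound at 1 μM or 0.1-30 μM, 15 min preincubation then NADPH-started reaction for 20 min at 37° C, in duplicate. Dextrorphan formation by UPLC-MS/MS; IC50 from % decrease versus uninhibited control.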

mPTP = mPTP activity assay in isolated rat brain mitochondria; assay type: biochemical; conditions: isolated rat brain mitochondria
Protocol: mPTP activity was measured in brain mitochondria freshly isolated from female Sprague Dawley (250 to 300 gram) rats. Anaesthetised rats were perfused in-situ with ˜40 ml cold Dulbecco's Phosphate Buffered Saline (DPBS), then brains dissected and transferred into 30 ml Isolation Buffer (225 mM mannitol, 75 mM sucrose, 1 mM EGTA, adjusted to pH 7.4 with 1 M NaOH). The brain was minced using tweezers and a scalpel into ˜5 mm pieces then transferred into a 50 ml Potterton Dounce homogenization tube on ice containing 10 ml ice-cold isolation buffer (as above with addition of Complete Protease inhibitor; 1 tablet per 50 ml buffer).
Homogenisation was carried out using a […] pestle at 1800 rpm. The slurry was centrifuged at 2000 g for 10 min at 4° C., then the supernatant centrifuged at 12,000 g for 9 min. The pellet was resuspended with a dounce homogeniser in isolation buffer as above but with the addition of 0.02% digitonin, centrifuged at 12,000 g for 11 min and finally resuspended in 5 ml modified isolation buffer (as above but with EGTA reduced to 0.1 mM).
Test compounds were prepared in 384 well polypropylene assay plates as described above for the liver mitochondria assay. A stock mitochondria/Fluo5N assay solution was prepared in 5.6 ml assay buffer (120 mM mannitol, 40 mM MOPS, 5 mM KH2PO4, 60 mM KCl, 10 mM pyruvate, 2 mM malate, 2 mM MgCl2, 20 μM ADP, 1.26 μM oligomycin A, adjusted to pH 7.4) supplemented with Fluo5N pentapotassium salt (2 μM) and 1 ml mitochondria suspension, then transferred (15 μl) into the assay plate containing test compounds and incubated for 10 min at RT. Assay plates were then transferred to a FLIPR Tetra plate reader (Molecular Devices). Dye fluorescence was then measured every 3 sec for a total of 10 min. After 12 sec, a 2.5 μl bolus of Ca2+ (75 μM) was added from a source plate containing 675 μM CaCl2) in FLIPR assay buffer. IC50 values for test compounds were calculated using the fluorescence value collected at the 10 min timepoint with % inhibition calculated using the DMSO control and cyclosporin A values at […].

[1] = Microsomal clearance assay; assay type: in vitro ADME; conditions: rat liver microsomes; average value from two experiments
Protocol: The microsomal stability of test compounds was evaluated using rat liver microsomes (BiolVT) with and without the cofactors nicotinamide adenine dinucleotide phosphate (NADPH) and undine-diphosphate-glucuronic acid (UDPGA). Reactions were performed in a final volume of 250 μl pre-warmed (37° C.) 100 mM phosphate buffer containing 5 mM MgCl2, 0.025 mg/ml alamethicin, and 0.5 mg/ml rat liver microsomes. NADPH and UDPGA were included at 1 mM and 2 mM respectively, where appropriate. Reactions were started with the addition of 1 μM (final concentration) test compound. Verapamil was used as the positive control. Solutions were incubated in a water bath at 37° C. and aliquots collected at 0.5, 5, 15, 30 and 60 min. Reactions were stopped by the addition of 5 volumes of cold acetonitrile with internal standards (200 nM caffeine and 100 nM tolbutamide). Samples were centrifuged at 3220 g for 40 min. An aliquot of supernatant was diluted 1:1 In ultra-pure H2O, then used for LC-MS/MS analysis. Peak areas were determined from extracted ion chromatograms. The slope value, k, was determined by linear regression of the natural logarithm of the remaining percentage of the parent drug vs. incubation time curve. The in vitro half-life (in vitro t½) was determined from the slope value: in vitro t½=0.693/k. Conversion of the in vitro t½ (min) into the in vitro intrinsic clearance (in vitro CLint, in μL/min/mg protein) was done using the following equation (mean of duplicate determinations): […]

inhibition at 20 min, 1 µM (CYP2D6) | mPTP Rat brain pIC50 (mPTP) | microsomal CLint at 1 µM [1] | pIC50 (CYP2D6) | inhibition of CYP2D6 (in words) (CYP2D6) | mPTP Rat brain pIC50 (mPTP; average value from a larger number of experiments) | Structure (SMILES)
8.2% | 7.7 | – | – | – | – | CO[C@H]1Cc2ccccc2[C@@H]1NC(=O)/C=C/c1ccc2c(C)n[nH]c2c1 [Example 54, (E)-N-((1S,2S)-2-methoxy-2,3-dihydro-1H-inden-1-yl)-3-(3-methyl-1H-indazol-6-yl)acrylamide]
-2.57% | – | 17 µL/min/mg | – | – | – | Cc1c(F)cccc1NC(=O)/C=C/c1ccc2c(c1F)NC(=O)C2 [Example 5, (E)-N-(3-fluoro-2-methylphenyl)-3-(7-fluoro-2-oxoindolin-6-yl)acrylamide]
3.13% | – | 13 µL/min/mg | – | – | – | Cc1c(F)cccc1NC(=O)/C=C/c1ccc2c(c1)NC(=O)C2C (centres unmarked) [Example 8, (E)-N-(3-fluoro-2-methylphenyl)-3-(3-methyl-2-oxoindolin-6-yl)acrylamide]
0.7% | – | 9.8 µL/min/mg | – | – | – | Cc1c(F)cccc1NC(=O)/C=C/c1ccc2c(c1)[nH]c(=O)n2C1CC1 [Example 23, (E)-3-(1-cyclopropyl-2-oxo-2,3-dihydro-1H-benzo[d]imidazol-5-yl)-N-(3-fluoro-2-methylphenyl)acrylamide]
-3.33% | 7.6 | – | – | – | – | Cc1ccc(F)c(C)c1NC(=O)/C=C/c1ccc2c(c1)[nH]c(=O)n2C [Example 30, (E)-N-(3-fluoro-2,6-dimethylphenyl)-3-(1-methyl-2-oxo-2,3-dihydro-1H-benzo[d]imidazol-5-yl)acrylamide]
2.05% | – | 52.9 µL/min/mg | 4.86 | – | – | Cc1n[nH]c2cc(/C=C/C(=O)NC3CCc4ccccc43)ccc12 (centres unmarked) [Example 25, (E)-N-(2,3-dihydro-1H-inden-1-yl)-3-(3-methyl-1H-indazol-6-yl)acrylamide]
3.66% | 6.5 | 13 µL/min/mg | < 4.52 | – | – | Cc1c(F)cccc1NC(=O)/C=C/c1ccc2c(c1)NC(=O)C2 [Example 10, (E)-N-(3-fluoro-2-methylphenyl)-3-(2-oxoindolin-6-yl)acrylamide]
86.5% | 7.6 | 43 µL/min/mg | 7.13 | highly potent inhibitor of CYP2D6 | 7.5*** | Cc1c(F)cccc1NC(=O)/C=C/c1ccc2cn[nH]c2c1 [Comparative Example 1, (E)-N-(2-methyl-3-fluorophenyl)-3-(1H-indazol-6-yl)acrylamide, reference compound]
2.05% | – | 9.85 µL/min/mg | – | – | – | CCn1c(=O)[nH]c2cc(/C=C/C(=O)Nc3cccc(F)c3C)ccc21 [Example 22, (E)-3-(1-ethyl-2-oxo-2,3-dihydro-1H-benzo[d]imidazol-5-yl)-N-(3-fluoro-2-methylphenyl)acrylamide]
2.27% | 6.9 | 6.5 µL/min/mg | < 4.52 | – | – | Cc1c(F)cccc1NC(=O)/C=C/c1ccc2c(c1)[nH]c(=O)n2C [Example 7, (E)-N-(3-fluoro-2-methylphenyl)-3-(1-methyl-2-oxo-2,3-dihydro-1H-benzo[d]imidazol-5-yl)acrylamide]
5.08% | – | 17 µL/min/mg | 4.72 | – | – | Cc1c(F)cccc1NC(=O)/C=C/c1ccc2oc(=O)[nH]c2c1 [Example 6, (E)-N-(3-fluoro-2-methylphenyl)-3-(2-oxo-2,3-dihydrobenzo[d]oxazol-5-yl)acrylamide]
1.91% | – | 36.8 µL/min/mg | – | – | – | Cc1c(F)cccc1NC(=O)/C(F)=C/c1ccc2c(c1)NC(=O)C2 [Example 47, (Z)-2-fluoro-N-(3-fluoro-2-methylphenyl)-3-(2-oxoindolin-6-yl)acrylamide]

Structure (SMILES) | inhibition at 20 min, 1 µM (CYP2D6) | mPTP Rat brain pIC50 (mPTP) | microsomal CLint at 1 µM [1] | pIC50 (CYP2D6) | inhibition of CYP2D6 (in words) (CYP2D6) | mPTP Rat brain pIC50 (mPTP; average value from a larger number of experiments)
Cc1cccc(C)c1NC(=O)/C=C/c1ccc2c(c1)NC(=O)C2 [Example 19, (E)-N-(2,6-dimethylphenyl)-3-(2-oxoindolin-6-yl)acrylamide] | -3.04% | – | 20 µL/min/mg | – | – | –
CO[C@H]1Cc2ccccc2[C@@H]1NC(=O)/C=C/c1ccc2c(F)n[nH]c2c1 [Example 73, (E)-3-(3-fluoro-1H-indazol-6-yl)-N-((1S,2S)-2-methoxy-2,3-dihydro-1H-Inden-1-yl)acrylamide] | 34.6% | 7.7 | – | – | – | –
